What all share (format): in vivo
Data set [1] concerns oval-leafed pondweed. The data set is described as follows: Test Example 2: weedkilling efficacy, growth period weed treatment in the submerged state; C: oval-leafed pondweed. An outline of the steps: (§1)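 Seedlings at 1-2 leaves in 4 cm-deep submerged alluvial soil received emulsion formulations on the water surface, dosed per hectare; effects were judged 3 weeks on.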
Data set [2] has as its system barnyard grass. The data set can be described thus: Test Example 2: weedkilling efficacy, growth period weed treatment in the submerged state; A: barnyard grass. The gist of the method: as §1
The subject of the next data set is transplanted rice. The data set can be described thus: Test Example 1: preemergent weed treatment in the submerged state, effect on crop; a: transplanted rice. The gist of the method:
(§2)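 Pre-emergence paddy test: weed seeds sown in submerged alluvial soil (4 cm water), 2.5-leaf rice transplanted, water-diluted emulsion applied to water surface at sowing at stated g/ha. Scored at 3 weeks, greenhouse 25–30 °C.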

The subject of data set [3] is bulrush. The data set is described as follows: Test Example 1: weedkilling efficacy, preemergent weed treatment in the submerged state; B: bulrush. An outline of the steps:
as §2

Data set [4] relates to bulrush. The data set is described as follows: Test Example 2: weedkilling efficacy, growth period weed treatment in the submerged state; B: bulrush. An outline of the steps: as §1
Data set [5] has as its system barnyard grass. The data set can be described thus: Test Example 1: weedkilling efficacy, preemergent weed treatment in the submerged state; A: barnyard grass. The gist of the method: as §2
In data set [6] the test system is oval-leafed pondweed. The data set is described as follows: Test Example 1: weedkilling efficacy, preemergent weed treatment in the submerged state; C: oval-leafed pondweed. An outline of the steps: as §2

The values below come from US9738634B2, “Heterocyclic amide compound and herbicide” (SYNGENTA PARTICIPATIONS AG, priority 2013, dated 2017).

Take `CC(C)(C(=O)Nc1cccc(C(F)(F)F)n1)N1COCN(c2ccccc2)C1=O` [A-2-44]: the “C (oval-leafed pondweed) weedkilling efficacy grade” value in the data set with oval-leafed pondweed [1] (treatment dosage 252 g/ha) was 1 (weed kill ratio 5% or more, less than 20%). Further, the “A (barnyard grass) weedkilling efficacy grade” value in the data set with barnyard grass [2] (treatment dosage 252 g/ha) is on record as 3 (weed kill ratio 40% or more, less than 70%). For the same molecule, the “a: transplanted rice, effect on crop grade” value (from here on “a: transplanted rice, effect”) in the data set with transplanted rice (treatment dosage 252 g/ha) is on record as 0 (weed kill ratio 5% or less (practically no effect)). The “B: bulrush, weed kill grade” value with bulrush [3] (treatment dosage 252 g/ha) is 5 (weed kill ratio 90% or more, (practically complete withering)). In addition, the “B (bulrush) weedkilling efficacy grade” value with bulrush [4] (treatment dosage 252 g/ha) is recorded as 5 (weed kill ratio 90% or more, (practically complete withering)). Moreover, in the data set with barnyard grass [5] (treatment dosage 252 g/ha), the “A: barnyard grass, weed kill grade” value was 5 (weed kill ratio 90% or more, (practically complete withering)). Further, in the data set with oval-leafed pondweed [6] (treatment dosage 252 g/ha), the “C: oval-leafed pondweed, weed kill grade” value is listed as 4 (weed kill ratio 70% or more, less than 90%).
As to `CC1=C(c2cccnc2F)C(=O)N(C(C)(C)C(=O)Nc2cc(C(F)(F)F)ccn2)CO1` [B-2-17], the “C (oval-leafed pondweed) weedkilling efficacy grade” value in the data set with oval-leafed pondweed [1] (treatment dosage 252 g/ha) was 3 (weed kill ratio 40% or more, less than 70%); in the data set with oval-leafed pondweed [6] (treatment dosage 252 g/ha), 5 (weed kill ratio 90% or more, (practically complete withering)). In addition, the “A (barnyard grass) weedkilling efficacy grade” value in the data set with barnyard grass [2] (treatment dosage 252 g/ha) is reported as 4 (weed kill ratio 70% or more, less than 90%); in the data set with barnyard grass [5] (treatment dosage 252 g/ha), 5 (weed kill ratio 90% or more, (practically complete withering)). The “a (transplanted rice) effect on crop grade” value (“a (transplanted rice) effect” below) in the data set with transplanted rice (treatment dosage 252 g/ha) was 3 (weed kill ratio 40% or more, less than 70%). In addition, the “B (bulrush) weedkilling efficacy grade” value in the data set on bulrush [3] (treatment dosage 252 g/ha) is 5 (weed kill ratio 90% or more, (practically complete withering)); with bulrush [4] (treatment dosage 252 g/ha) it was 5 (weed kill ratio 90% or more, (practically complete withering)).
Turning to `Cc1cc(C(F)(F)F)cc(NC(=O)C(C)(C)N2COCN(c3ccccc3)C2=O)n1` [A-2-58], the “C (oval-leafed pondweed) weedkilling efficacy grade” value in the data set with oval-leafed pondweed [1] (treatment dosage 320 g/ha) is recorded as 5 (weed kill ratio 90% or more, (practically complete withering)). In addition, the “A (barnyard grass) weedkilling efficacy grade” value in the data set with barnyard grass [2] (treatment dosage 320 g/ha) is listed as 5 (weed kill ratio 90% or more, (practically complete withering)). Also, the “a: transplanted rice, effect” value in the data set with transplanted rice (treatment dosage 320 g/ha) is listed as 1 (weed kill ratio 5% or more, less than 20%). For the same molecule, the “B: bulrush, weed kill grade” value in the data set on bulrush [3] (treatment dosage 320 g/ha) is reported as 5 (weed kill ratio 90% or more, (practically complete withering)). Further, the “B (bulrush) weedkilling efficacy grade” value with bulrush [4] (treatment dosage 320 g/ha) is recorded as 5 (weed kill ratio 90% or more, (practically complete withering)). The “A: barnyard grass, weed kill grade” value with barnyard grass [5] (treatment dosage 320 g/ha) is reported as 5 (weed kill ratio 90% or more, (practically complete withering)). Moreover, the “C: oval-leafed pondweed, weed kill grade” value in the data set with oval-leafed pondweed [6] (treatment dosage 320 g/ha) is reported as 5 (weed kill ratio 90% or more, (practically complete withering)).
As for `CC1=C(c2ccccc2)C(=O)N(C(C)(C)C(=O)Nc2cc(-c3ccccc3)ccn2)CO1` [B-2-59], the “C (oval-leafed pondweed) weedkilling efficacy grade” value in the data set with oval-leafed pondweed [1] (treatment dosage 252 g/ha) is recorded as 0 (weed kill ratio 5% or less (practically no effect)); in the data set on oval-leafed pondweed [6] (treatment dosage 252 g/ha) it was 2 (weed kill ratio 20% or more, less than 40%). Further, the “A (barnyard grass) weedkilling efficacy grade” value in the data set on barnyard grass [2] (treatment dosage 252 g/ha) was 0 (weed kill ratio 5% or less (practically no effect)); with barnyard grass [5] (treatment dosage 252 g/ha) it was 2 (weed kill ratio 20% or more, less than 40%). For the same molecule, the “a (transplanted rice) effect” value with transplanted rice (treatment dosage 252 g/ha) was 0 (weed kill ratio 5% or less (practically no effect)). The “B (bulrush) weedkilling efficacy grade” value with bulrush [3] (treatment dosage 252 g/ha) is 4 (weed kill ratio 70% or more, less than 90%); in the data set on bulrush [4] (treatment dosage 252 g/ha) it was 1 (weed kill ratio 5% or more, less than 20%).
Turning to `CC(C)(C(=O)Nc1ccc(C(F)(F)F)cn1)N1COCN(c2ccccc2)C1=O` [A-2-43], in the data set with oval-leafed pondweed [1] (treatment dosage 320 g/ha), the “C (oval-leafed pondweed) weedkilling efficacy grade” value is listed as 2 (weed kill ratio 20% or more, less than 40%). In the data set on barnyard grass [2] (treatment dosage 320 g/ha), the “A (barnyard grass) weedkilling efficacy grade” value was 2 (weed kill ratio 20% or more, less than 40%). The “a: transplanted rice, effect” value in the data set with transplanted rice (treatment dosage 320 g/ha) is recorded as 0 (weed kill ratio 5% or less (practically no effect)). For the same molecule, in the data set on bulrush [3] (treatment dosage 320 g/ha), the “B: bulrush, weed kill grade” value was 5 (weed kill ratio 90% or more, (practically complete withering)). Further, in the data set with bulrush [4] (treatment dosage 320 g/ha), the “B (bulrush) weedkilling efficacy grade” value was 4 (weed kill ratio 70% or more, less than 90%). Also, the “A: barnyard grass, weed kill grade” value with barnyard grass [5] (treatment dosage 320 g/ha) is 3 (weed kill ratio 40% or more, less than 70%). In the data set with oval-leafed pondweed [6] (treatment dosage 320 g/ha), the “C: oval-leafed pondweed, weed kill grade” value is 5 (weed kill ratio 90% or more, (practically complete withering)).
With `CC(C)(C(=O)Nc1nc(Cl)cc(Cl)n1)N1COCN(c2ccccc2)C1=O` [A-1-19], the “C (oval-leafed pondweed) weedkilling efficacy grade” value in the data set on oval-leafed pondweed [1] (treatment dosage 252 g/ha) is 2 (weed kill ratio 20% or more, less than 40%). Besides, the “A (barnyard grass) weedkilling efficacy grade” value with barnyard grass [2] (treatment dosage 252 g/ha) was 3 (weed kill ratio 40% or more, less than 70%). Further, the “a: transplanted rice, effect” value with transplanted rice (treatment dosage 252 g/ha) is listed as 0 (weed kill ratio 5% or less (practically no effect)). Besides, the “B: bulrush, weed kill grade” value with bulrush [3] (treatment dosage 252 g/ha) was 3 (weed kill ratio 40% or more, less than 70%). For the same molecule, the “B (bulrush) weedkilling efficacy grade” value in the data set with bulrush [4] (treatment dosage 252 g/ha) is recorded as 2 (weed kill ratio 20% or more, less than 40%). In addition, in the data set with barnyard grass [5] (treatment dosage 252 g/ha), the “A: barnyard grass, weed kill grade” value is listed as 2 (weed kill ratio 20% or more, less than 40%). Also, the “C: oval-leafed pondweed, weed kill grade” value in the data set with oval-leafed pondweed [6] (treatment dosage 252 g/ha) is listed as 2 (weed kill ratio 20% or more, less than 40%).
For the molecule `CC(C)(C(=O)Nc1cc(C(F)(F)F)ccn1)N1COCN(c2ccc(Cl)c(Cl)c2)C1=O` [A-6-03], the “C (oval-leafed pondweed) weedkilling efficacy grade” value with oval-leafed pondweed [1] (treatment dosage 320 g/ha) was 0 (weed kill ratio 5% or less (practically no effect)). Also, in the data set with barnyard grass [2] (treatment dosage 320 g/ha), the “A (barnyard grass) weedkilling efficacy grade” value is on record as 0 (weed kill ratio 5% or less (practically no effect)). For the same molecule, in the data set with transplanted rice (treatment dosage 320 g/ha), the “a: transplanted rice, effect” value is given as 0 (weed kill ratio 5% or less (practically no effect)). For the same molecule, the “B: bulrush, weed kill grade” value with bulrush [3] (treatment dosage 320 g/ha) was 5 (weed kill ratio 90% or more, (practically complete withering)). Besides, in the data set on bulrush [4] (treatment dosage 320 g/ha), the “B (bulrush) weedkilling efficacy grade” value was 2 (weed kill ratio 20% or more, less than 40%). Further, the “A: barnyard grass, weed kill grade” value in the data set on barnyard grass [5] (treatment dosage 320 g/ha) is listed as 3 (weed kill ratio 40% or more, less than 70%). Besides, the “C: oval-leafed pondweed, weed kill grade” value in the data set on oval-leafed pondweed [6] (treatment dosage 320 g/ha) is reported as 0 (weed kill ratio 5% or less (practically no effect)).
With `CC(C)(C(=O)Nc1cncc(C(F)(F)F)c1)N1COCN(c2ccccc2)C1=O` [A-3-10], the “C (oval-leafed pondweed) weedkilling efficacy grade” value in the data set with oval-leafed pondweed [1] (treatment dosage 252 g/ha) is 4 (weed kill ratio 70% or more, less than 90%). Also, the “A (barnyard grass) weedkilling efficacy grade” value in the data set with barnyard grass [2] (treatment dosage 252 g/ha) was 3 (weed kill ratio 40% or more, less than 70%). The “a: transplanted rice, effect” value with transplanted rice (treatment dosage 252 g/ha) was 1 (weed kill ratio 5% or more, less than 20%). The “B: bulrush, weed kill grade” value with bulrush [3] (treatment dosage 252 g/ha) is listed as 5 (weed kill ratio 90% or more, (practically complete withering)). Besides, in the data set with bulrush [4] (treatment dosage 252 g/ha), the “B (bulrush) weedkilling efficacy grade” value was 5 (weed kill ratio 90% or more, (practically complete withering)). In addition, the “A: barnyard grass, weed kill grade” value in the data set with barnyard grass [5] (treatment dosage 252 g/ha) is reported as 5 (weed kill ratio 90% or more, (practically complete withering)). The “C: oval-leafed pondweed, weed kill grade” value in the data set with oval-leafed pondweed [6] (treatment dosage 252 g/ha) is listed as 5 (weed kill ratio 90% or more, (practically complete withering)).
In the case of `CC1=C(c2cccnc2F)C(=O)N(C(C)(C)C(=O)Nc2cccc(Br)n2)CO1` [B-2-10], the “C (oval-leafed pondweed) weedkilling efficacy grade” value is listed as 5 (weed kill ratio 90% or more, (practically complete withering)) in the data set with oval-leafed pondweed [1] (treatment dosage 320 g/ha) and 5 (weed kill ratio 90% or more, (practically complete withering)) in the data set on oval-leafed pondweed [6] (treatment dosage 320 g/ha). For the same molecule, the “A (barnyard grass) weedkilling efficacy grade” value with barnyard grass [2] (treatment dosage 320 g/ha) was 5 (weed kill ratio 90% or more, (practically complete withering)); with barnyard grass [5] (treatment dosage 320 g/ha) it was 5 (weed kill ratio 90% or more, (practically complete withering)). Also, in the data set with transplanted rice (treatment dosage 320 g/ha), the “a (transplanted rice) effect” value was 1 (weed kill ratio 5% or more, less than 20%). In addition, the “B (bulrush) weedkilling efficacy grade” value in the data set on bulrush [3] (treatment dosage 320 g/ha) is listed as 5 (weed kill ratio 90% or more, (practically complete withering)); in the data set with bulrush [4] (treatment dosage 320 g/ha), 5 (weed kill ratio 90% or more, (practically complete withering)).
